Experimental data taken from EP0572662B1, “SILVER HALIDE PHOTOGRAPHIC MATERIAL” (FUJI PHOTO FILM CO., LTD., priority 1991, dated 1993).

Test: Speed of silver telluride formation in a silver halide emulsion (Kubelka-Munk reflectivity test)
Assay type: physicochemical
Details: octahedral silver bromide emulsion, 50°C, pH 6.3, pAg 8.3, telluride 1 × 10^-3 mol/mol Ag, reflectivity at 520 nm
Description: The speed with which silver telluride is formed in the silver halide emulsion can be determined by the following test.
When a tellurium sensitizer is added in a great amount (e.g., 1 × 10^-3 mol/mol Ag), the silver telluride formed absorbs light beam of the visible region. […] 181 (1966) and ibid., Vol. 16, p. 102 (1968) can be applied for sulfur sensitizers. Therefore, the relative speed at which silver telluride is formed can easily be obtained by the same method as used in determining the amount of silver sulfide formed in a silver halide emulsion from the infinite reflectivity of the emulsion to visible light beams (520 nm) in accordance the Kubelka-Munk formula. […]
An emulsion which contains octahedral silver bromide grains having an average size of 0.5 µm (containing 0.75 mol of AgBr and 80 g of gelatin per kilogram) is maintained at 50°C, while holding pH and pAg at 6.3 and 8.3, respectively. […] Then, the reflectivity (R) of the emulsion to light beams of 520 nm is detected at times by means of a spectrophotometer having an integrating sphere, using the reflectivity of a blank emulsion as reference. Every reflectivity, thus detected, is substituted in the Kubelka-Munk formula, (1-R)^2/2R. The time spend until the value of (1-R)^2/2R becomes 0.01 is measured. The pseudo-first-order reaction rate constant k (min-1) is determined from the time thus measured. […]

SMILES	pseudo-first-order reaction rate constant k [min⁻¹]
CC(C)CP(=[Te])(CC(C)C)CC(C)C [Compound 7, ((i)C4H9)3P = Te]	~0.004
CC(C)P(=[Te])(C(C)C)C(C)C [Compound 4, ((i)C3H7)3P = Te]	~7e-05
